Assay results: patent publication US11510887B2, “Sobetirome in the treatment of myelination diseases” (Oregon Health & Science University, priority 2013, dated 2022)

Assays:
[1] = test system: corpus callosum of mice following injection of lysolecithin; test: Lysolecithin toxin model of focal demyelination; type: in vivo, C57BL/6 mice; settings: 8 days after lysolecithin injection, daily i.p. from 7 days before to 8 days after, sobetirome 1.0 mg/kg/day, T3 0.4 mg/kg/day
Method: FIG. 1: Sobetirome reduced demyelination in the corpus callosum of mice following injection of lysolecithin. Top, BlackGold® stain is specific for myelin fibers and cresyl violet is used as a counterstain. Mice received stereotactic injections of 2 μL of PBS or 2% lysolecithin in the corpus callosum. A white arrow indicates the path of the injection needle and a black box indicates the lesion site. An enlarged image of the boxed lesion site is shown to the right. Bottom, brain sections of 30 μm were stained with FluoroMyelin™, anti-PDGFR-α and DAPI. Hypothyroidism was induced with drinking water treatment, and both hypothyroid and control mice received vehicle injections. T3 (0.4 mg/kg) and sobetirome (1 mg/kg) were administered by daily i.p. injections starting 7 days before stereotactic injection of lysolecithin. Mice were euthanized 8 days after stereotactic injection of 2% lysolecithin, and brains were harvested and processed for histological analysis.
Lysolecithin was injected into the corpus callosum using stereotactic equipment at the x, y, z coordinates of +1.000, +1.050, and +2.000 mm from the Bregma point using a beveled needle with the bevel facing caudally. To minimize trauma, 2 μL of 2% lysolecithin or 2 μL of PBS was injected over four minutes using a micropump injector and the beveled needle was held in place for five minutes before withdrawal. […]

C57BL/6 mice with EAE = test: EAE induced with MOG 35-55 peptide; type: in vivo, C57BL/6 female mice
Method: FIG. 2: Sobetirome reduces demyelination in mice with EAE. […] EAE was induced in female mice with MOG 35-55 peptide. On day 17 post immunization, mice were randomized based on their EAE scores and daily i.p. injections of sobetirome (n=8) or vehicle (n=8) were started. Mice were euthanized after 11 days of treatment and spinal cords were prepared for histological evaluation. The mean percentage of ventrolateral demyelination for vehicle treated mice was 17.25 (SD+/−7.09) and 9.11 (SD+/−4.96) for sobetirome (p<0.01).
This study was performed to assess the effects of sobetirome on EAE in C57BL/6 female mice immunized with MOG 35-55 peptide. Seventeen days after immunization, at peak of clinical disease, mice were randomized to receive daily injections of sobetirome (1 mg/kg/day) or vehicle. After 11 days of treatment, mice were euthanized and processed for histologic examination. […] This is because the degree of inflammation within the spinal cords was similar between the two groups (Table 1) and much of the short term paralysis that occurs in EAE is secondary to effects of inflammation on neural function. […] Much of the effect appears related to protection of axons and myelin from damage (FIG. 3). Thus, sobetirome has a neuroprotective effect that decreases axonal damage and demyelination.

For `Cc1cc(OCC(=O)O)cc(C)c1Cc1ccc(O)c(C(C)C)c1` [Sobetirome], the “areas of demyelination compared with vehicle” value [1] was “much smaller areas of demyelination”, the “% CD4 Staining (T cell marker)” value (C57BL/6 mice with EAE; immunofluorescent staining of lumbosacral spinal cord sections, vehicle 1.01) was 1.24% and the “% CD11b Staining (macrophage marker)” value (C57BL/6 mice with EAE; immunofluorescent staining of lumbosacral spinal cord sections, vehicle 3.89) was 5.76%. The “EAE clinical scores versus vehicle” value (C57BL/6 mice with EAE; sobetirome 1 mg/kg/day, 11 days of treatment from day 17 after immunization) was “did not differ significantly”, the “demyelination in lateral columns of the lumbosacral cord versus vehicle” value (C57BL/6 mice with EAE; sobetirome 1 mg/kg/day, 11 days of treatment, p<0.01) was “significantly less demyelination” and the “mean percentage of ventrolateral demyelination (area of damage in ventrolateral white matter)” value (C57BL/6 mice with EAE; spinal cord, after 11 days of daily i.p. treatment started day 17 post immunization, n=8, vehicle 17.25 (SD+/−7.09), p<0.01) was 9.11 (SD+/−4.96) %.

For `N[C@@H](Cc1cc(I)c(Oc2ccc(O)c(I)c2)c(I)c1)C(=O)O` [T3, triiodothyronine], the “areas of demyelination compared with vehicle” value [1] was “much smaller areas of demyelination”.
